In PubChem BioAssay (NCI):
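Exposure lasted 48 hours, with cells grown in 96-well plates and compounds tested at five concentrations. GI50 is the concentration that inhibits growth by half. TGI: concentration producing complete growth inhibition.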

What was measured:
Assay in all cases: DTP human tumour cell line panel, 48 h
786-0 renal = tested on: 786-0 renal
A498 renal = tested on: A498 renal
A549 NSCLC = tested on: A549 NSCLC
ACHN renal = tested on: ACHN renal
BT-549 breast = tested on: BT-549 breast
CAKI-1 renal = tested on: CAKI-1 renal
CCRF-CEM leukemia = tested on: CCRF-CEM leukemia
COLO 205 colon = tested on: COLO 205 colon
DU-145 prostate = tested on: DU-145 prostate
EKVX NSCLC = tested on: EKVX NSCLC
HCC-2998 colon = tested on: HCC-2998 colon
HCT-116 colon = tested on: HCT-116 colon
HCT-15 colon = tested on: HCT-15 colon
HL-60(TB) leukemia = tested on: HL-60(TB) leukemia
HOP-62 NSCLC = tested on: HOP-62 NSCLC
HOP-92 NSCLC = tested on: HOP-92 NSCLC
HS 578T breast = tested on: HS 578T breast
HT29 colon = tested on: HT29 colon
IGROV1 ovarian = tested on: IGROV1 ovarian
K-562 leukemia = tested on: K-562 leukemia
KM12 colon = tested on: KM12 colon
LOX IMVI melanoma = tested on: LOX IMVI melanoma
M14 melanoma = tested on: M14 melanoma
MALME-3M melanoma = tested on: MALME-3M melanoma
MCF7 breast = tested on: MCF7 breast
MDA-MB-231 breast = tested on: MDA-MB-231 breast
MDA-MB-435 = tested on: MDA-MB-435
MOLT-4 leukemia = tested on: MOLT-4 leukemia
NCI-H226 lung = tested on: NCI-H226 lung
NCI-H23 lung = tested on: NCI-H23 lung
NCI-H460 lung = tested on: NCI-H460 lung
NCI-H522 lung = tested on: NCI-H522 lung
NCI/ADR-RES ovarian = tested on: NCI/ADR-RES ovarian
OVCAR-3 ovarian = tested on: OVCAR-3 ovarian
OVCAR-4 ovarian = tested on: OVCAR-4 ovarian
OVCAR-5 ovarian = tested on: OVCAR-5 ovarian
OVCAR-8 ovarian = tested on: OVCAR-8 ovarian
PC-3 prostate = tested on: PC-3 prostate
RPMI-8226 leukemia = tested on: RPMI-8226 leukemia
RXF 393 renal = tested on: RXF 393 renal
SF-268 CNS = tested on: SF-268 CNS
SF-295 CNS = tested on: SF-295 CNS
SF-539 CNS = tested on: SF-539 CNS
SK-MEL-2 melanoma = tested on: SK-MEL-2 melanoma
SK-MEL-28 melanoma = tested on: SK-MEL-28 melanoma
SK-MEL-5 melanoma = tested on: SK-MEL-5 melanoma
SK-OV-3 ovarian = tested on: SK-OV-3 ovarian
SN12C renal = tested on: SN12C renal
SNB-19 CNS = tested on: SNB-19 CNS
SNB-75 CNS = tested on: SNB-75 CNS
SR leukemia = tested on: SR leukemia
SW-620 colon = tested on: SW-620 colon
T-47D breast = tested on: T-47D breast
TK-10 renal = tested on: TK-10 renal
U251 CNS = tested on: U251 CNS
UACC-257 melanoma = tested on: UACC-257 melanoma
UACC-62 melanoma = tested on: UACC-62 melanoma
UO-31 renal = tested on: UO-31 renal

O=C(/C=C/c1cc(Cl)ccc1Cl)Nc1ncc(Cc2ccc(Cl)cc2)s1
GI50 (786-0 renal): 112 nM | TGI (786-0 renal): 3240 nM | GI50 (A498 renal): 31.6 nM | TGI (A498 renal): 235 nM | GI50 (A549 NSCLC): 99.2 nM | TGI (A549 NSCLC): 13000 nM | GI50 (ACHN renal): 128 nM | TGI (ACHN renal): 5290 nM | GI50 (BT-549 breast): 57.4 nM | TGI (BT-549 breast): 379 nM | GI50 (CAKI-1 renal): 61.8 nM | TGI (CAKI-1 renal): 2170 nM | GI50 (CCRF-CEM leukemia): 37.6 nM | TGI (CCRF-CEM leukemia): > 100000 nM | GI50 (COLO 205 colon): 82.3 nM | TGI (COLO 205 colon): 378 nM | GI50 (DU-145 prostate): 300 nM | TGI (DU-145 prostate): 15900 nM | GI50 (EKVX NSCLC): 158 nM | TGI (EKVX NSCLC): > 72900 nM | GI50 (HCC-2998 colon): 209 nM | TGI (HCC-2998 colon): 10700 nM | GI50 (HCT-116 colon): 42 nM | TGI (HCT-116 colon): 5850 nM | GI50 (HCT-15 colon): 44.8 nM | TGI (HCT-15 colon): > 37900 nM | GI50 (HL-60(TB) leukemia): 28.2 nM | TGI (HL-60(TB) leukemia): 256 nM | GI50 (HOP-62 NSCLC): 80.3 nM | TGI (HOP-62 NSCLC): 6030 nM | GI50 (HOP-92 NSCLC): 715 nM | TGI (HOP-92 NSCLC): 5870 nM | GI50 (HS 578T breast): 52.4 nM | TGI (HS 578T breast): 6180 nM | GI50 (HT29 colon): 86.8 nM | TGI (HT29 colon): 1210 nM | GI50 (IGROV1 ovarian): 165 nM | TGI (IGROV1 ovarian): 16300 nM | GI50 (K-562 leukemia): 35.2 nM | TGI (K-562 leukemia): > 100000 nM | GI50 (KM12 colon): 53.5 nM | TGI (KM12 colon): > 28100 nM | GI50 (LOX IMVI melanoma): 101 nM | TGI (LOX IMVI melanoma): 11300 nM | GI50 (M14 melanoma): 40.5 nM | TGI (M14 melanoma): 1490 nM | GI50 (MALME-3M melanoma): 866 nM | TGI (MALME-3M melanoma): 43300 nM | GI50 (MCF7 breast): 83.3 nM | TGI (MCF7 breast): > 38800 nM | GI50 (MDA-MB-231 breast): 179 nM | TGI (MDA-MB-231 breast): 9530 nM | GI50 (MDA-MB-435): 19.2 nM | TGI (MDA-MB-435): 41.4 nM | GI50 (MOLT-4 leukemia): 122 nM | TGI (MOLT-4 leukemia): > 100000 nM | GI50 (NCI-H226 lung): 310 nM | TGI (NCI-H226 lung): 12000 nM | GI50 (NCI-H23 lung): 67.3 nM | TGI (NCI-H23 lung): 11000 nM | GI50 (NCI-H460 lung): 64 nM | TGI (NCI-H460 lung): 1510 nM | GI50 (NCI-H522 lung): 33.3 nM | TGI (NCI-H522 lung): 155 nM | GI50 (NCI/ADR-RES ovarian): 42.9 nM | TGI (NCI/ADR-RES ovarian): 2280 nM | GI50 (OVCAR-3 ovarian): 113 nM | TGI (OVCAR-3 ovarian): 1280 nM | GI50 (OVCAR-4 ovarian): 1590 nM | TGI (OVCAR-4 ovarian): 10800 nM | GI50 (OVCAR-5 ovarian): 197 nM | TGI (OVCAR-5 ovarian): 13800 nM | GI50 (OVCAR-8 ovarian): 69.5 nM | TGI (OVCAR-8 ovarian): 1840 nM | GI50 (PC-3 prostate): 105 nM | TGI (PC-3 prostate): > 53700 nM | GI50 (RPMI-8226 leukemia): 67.4 nM | TGI (RPMI-8226 leukemia): 16500 nM | GI50 (RXF 393 renal): 27.6 nM | TGI (RXF 393 renal): 306 nM | GI50 (SF-268 CNS): 1170 nM | TGI (SF-268 CNS): 52900 nM | GI50 (SF-295 CNS): 38.2 nM | TGI (SF-295 CNS): 5130 nM | GI50 (SF-539 CNS): 32.8 nM | TGI (SF-539 CNS): 202 nM | GI50 (SK-MEL-2 melanoma): 144 nM | TGI (SK-MEL-2 melanoma): 4520 nM | GI50 (SK-MEL-28 melanoma): 1980 nM | TGI (SK-MEL-28 melanoma): 53400 nM | GI50 (SK-MEL-5 melanoma): 299 nM | TGI (SK-MEL-5 melanoma): 5190 nM | GI50 (SK-OV-3 ovarian): 78.7 nM | TGI (SK-OV-3 ovarian): 17000 nM | GI50 (SN12C renal): 150 nM | TGI (SN12C renal): 11700 nM | GI50 (SNB-19 CNS): 70.2 nM | TGI (SNB-19 CNS): 31400 nM | GI50 (SNB-75 CNS): 39.1 nM | TGI (SNB-75 CNS): 2470 nM | GI50 (SR leukemia): 32.4 nM | TGI (SR leukemia): > 100000 nM | GI50 (SW-620 colon): 45.4 nM | TGI (SW-620 colon): > 100000 nM | GI50 (T-47D breast): 14100 nM | TGI (T-47D breast): > 100000 nM | GI50 (TK-10 renal): 1300 nM | TGI (TK-10 renal): 11100 nM | GI50 (U251 CNS): 39.5 nM | TGI (U251 CNS): 3880 nM | GI50 (UACC-257 melanoma): 226 nM | TGI (UACC-257 melanoma): > 46900 nM | GI50 (UACC-62 melanoma): 50.7 nM | TGI (UACC-62 melanoma): 18000 nM | GI50 (UO-31 renal): 142 nM | TGI (UO-31 renal): 7360 nM
